According to US20100248372A1, “Composition and Method for Modulating Plant Transformation” (priority 2009, published 2010):
Read-outs that look alike come from different tables or passages of the source.

Experiments:
Arabidopsis thaliana = assay: Homologous recombination (GUS reporter, histochemical staining) in plants grown on supplemented medium; assay type: in vivo; settings: for increase in homologous recombination vs control MS medium: about 3 weeks; for effect on homologous recombination frequency: FIG. 3; for RR (recombination rate): 3-week-old plants
Text: Homologous recombination was detected in plants, in particular Arabidopsis thaliana and tobacco plants, that were transformed with scorable reporter markers, for example, beta-glucuronidase (uidA or GUS). Upon homologous recombination, the marker gene is restored. Homologous recombination events were identified using histochemical staining. […] A recombination substrate generally consists of two non-functional overlapping copies of a GUS gene. Damage to one of the regions of homology may be repaired using the second copy as a template. A simple count of the number of recombination events in a population of plants was used to conduct quantitative analyses of beta-glucuronidase (GUS) activity. The homologous recombination frequency (HRF) was determined by relating the number of blue spots counted which are indicative of […] and then relating that number to the total number of plants scored. The recombination rate (RR) was determined by relating the HRF to the total number of haploid genomes present in the plant.
The total DNA of the transgenic lines was isolated from whole plants at preferably the full rosette stage using a Nucleon™ PhytoPure™ plant DNA extraction kit from Amersham Life Science. DNA may also be isolated from plants at a different development stage. The yield of total DNA measured in one of micrograms per plant or micrograms per plant organ was compared with the known mean DNA content, 0.16 pg of an A. thaliana cell, to give an approximate number of genomes present in plants (Swoboda et al., Mol. Gen. Genet., 1993, 237(1-2): 33-40). The total DNA was isolated from one of all leaves, roots, and stems of 4 plants per each experimental group for each transgenic line. The average DNA content from these samples was used to estimate the number of genomes present.
Tissues were prepared from A. thaliana plants that were germinated and grown for a period of 3 weeks on a medium containing 0, 25, 75, and 100 mM of NaCl. The recombination rate (RR) was calculated by scoring the HRF in separate groups of 3-week-old plants and then relating these numbers to the total number of genomes present in the plants. Each of the calculated values represents the mean value for the RR. […] The “Fold Increase” values shown in Table 1 were calculated by relating the data from plants grown on 25, 75 and 100 mM of NaCL to the data from plants grown in the absence of NaCl.
Plants were germinated and grown on MS medium supplemented with one of 25 mM NaCl, 12.5 mM of Na2SO4, 12.5 mM of MgCl2, and 12.5 mM of MgSO4. Control plants were grown on standard MS medium. […] The data shown is the RR as an average of two independent experiments, each having 200 plants per experimental group.
The effects of KCl on plant transformation were measured using transgenic plants germinated from Arabidopsis line #11 obtained from Prof. Hohn, Friedrich Miescher Institute, Basel, Switzerland. Plants were germinated and grown on a solid or modified MS basal medium in presence of varying quantities of KCl. In order to establish KCl as the single source of potassium in all the modified media, KNO3, normally present in MS media was omitted. Additionally, potassium dihydrogenphosphate (KH2PO4) was replaced with ammonium dihydrogenphosphate (NH4▪H2PO4).

Nicotiana tabacum [1] = assay: Calli regeneration under hygromycin selection after Agrobacterium transformation of leaves; assay type: in vivo; settings: for Calli regenerated and transplanted: died on soil / Calli regenerated and transplanted: total: 20 leaves transformed
Description: Seeds of tobacco cultivar “Big Havana” were surface-sterilized with a solution containing 1% bleach and 0.05% Tween-80, for about 3 minutes and then rinsed twice with sterile distilled water for about 5 minutes. Surface-sterilized seeds were plated in 100 mm Petri dishes on sterile Whatman® filter paper submersed in 4 ml of liquid MS medium containing varying amounts of KCl and the plants were transferred to a growth chamber for germination. Once germinated, the plants were removed from the growth chamber and grown for a period of one week under conditions of 16-hours light, 22° C. and 8-hours dark, 18° C. Three to five one-week-old plants were then removed from the 4-ml liquid medium and were transferred to single sterile glass 250-ml flasks containing 15 ml of sterile liquid MS media supplemented with varying amounts of KCl. Flasks were then installed on shakers at 50-75 rpm. Plants were continuously grown under conditions of 16-hours light, 22° C. and 8-hours dark, 18° C. The growth medium in each flask was replaced weekly with 25 ml of fresh medium. Following a 3-week period, plants were removed from the flasks and 2 to 3 pairs of fully developed fresh leaves about 2-4 cm long were harvested (cut from the plant) for transformation with Agrobacteria.
Experimental groups of tobacco plants were germinated and grown in a liquid medium culture supplemented with varying amounts of KCl. Control plants for the transformation experiments were grown in a standard MS-medium that was not supplemented with KCl.
Four weeks post-germination, the tobacco plants were removed from the liquid medium culture. The leaves from the plants were removed, and several parallel incisions were made along the leaves. The leaves were then vacuum infiltrated with an Agrobacterium suspension culture carrying the plasmid with LUC (gene coding for luciferase) and hygromycin (gene coding for the resistance to hygromycin) genes.
The leaves were vacuum-infiltrated twice for about 5 minutes with the Agrobacterium suspension culture using standard procedures known in the art. Following vacuum-infiltration, the tobacco leaves were dried for about 5 to 10 minutes on sterile Whatman® filter paper to remove substantially all excess Agrobacterium cells. The leaves were then placed on plates containing MS medium, and each of the plates were placed for in a room for a period of 3 day at a temperature of 22° C. and exposed to a daily regime of 16-hours of light and 8-hours of dark.
Leaves from each of the experimental groups grown on the different media compositions having varying amounts of KCL and the controls were washed with sterile water to remove the Agrobacterium suspension. To remove traces of growth medium, leaves were blotted on sterile filter paper and then submersed in a Petri dish laid out with Whatman® filter paper containing re-suspended Agrobacterium cells. Each submersed leaf surface was incised using a sharp surgical blade in parallel along the side veins. The distance between the two parallel incisions was about 5-7 mm. The primary leaf vein and leaf margins were left intact. Once cutting was complete, leaves remained submersed for a period of about 10 minutes. Leaves were then removed from the Petri dish and were blotted dry and placed upside-down on plates of MS medium, and were incubated in a dark room at 22° C. for a period of 3 days. […]
After a period of about 3 to 4 weeks, the numbers of regenerated calli were determined. […]

Nicotiana tabacum [2] = assay: Stable T-DNA integration (LUC expression test of regenerated plantlets); assay type: in vivo; settings: for Calli regenerated and transplanted, LUC expression test: LUC negative / Calli regenerated and transplanted, LUC expression test: LUC positive: 20 leaves transformed
Text: The number of transgenic plants, having incorporated a marker gene, regenerated from tobacco calli in various transformation experiments were counted. All the regenerated plants were screened using a luciferase camera. Spraying the transgenic plants with luciferine, the substrate for luciferase enzyme, allowed the identification of transgenic plants expressing the luciferase.
The newly appeared plantlets regenerated from the calli of Example 4 showing evidence of root formation, were excised from the calli and transferred to soil.
Plantlets were sprayed with luciferine, and the total number of luciferase-positive plantlets was scored. This allowed the calculation of the transformation frequency, as the number of plants expressing LUC gene to the number of transformed leaves, shown in FIG. 7.

[Cl-].[K+] [KCl, potassium chloride]
increase in homologous recombination vs control MS medium (Arabidopsis thaliana; modified medium with 18.8 mM KCl): 9.3 fold
increase in homologous recombination vs control MS medium (Arabidopsis thaliana; modified medium with 47 mM KCl): 15.4 fold
increase in homologous recombination vs control MS medium (Arabidopsis thaliana; modified medium with 94 mM KCl): 19.2 fold
Calli regenerated and transplanted: died on soil (Nicotiana tabacum [1]; 47 mM KCl): 0
Calli regenerated and transplanted: total (Nicotiana tabacum [1]; 47 mM KCl): 138
Calli regenerated and transplanted: died on soil (Nicotiana tabacum [1]; 94 mM KCl): 3
Calli regenerated and transplanted: total (Nicotiana tabacum [1]; 94 mM KCl): 181
increase in number of calli regenerated vs control medium (Nicotiana tabacum [1]; media containing 47 and 94 mM KCl): 5.9 fold
Integration frequency, LUC positive plants/leaf transformed (Nicotiana tabacum [2]; 47 mM KCl): 5.3
difference in number of stable transformants vs control media (Nicotiana tabacum [2]; 47 mM KCl): 5.9 fold
Calli regenerated and transplanted, LUC expression test: LUC negative (Nicotiana tabacum [2]; 47 mM KCl): 32
Calli regenerated and transplanted, LUC expression test: LUC positive (Nicotiana tabacum [2]; 47 mM KCl): 106
Integration frequency, LUC positive plants/leaf transformed (Nicotiana tabacum [2]; 94 mM KCl): 7.2
difference in number of stable transformants vs control media (Nicotiana tabacum [2]; 94 mM KCl): 8.0 fold
Calli regenerated and transplanted, LUC expression test: LUC negative (Nicotiana tabacum [2]; 94 mM KCl): 41
Calli regenerated and transplanted, LUC expression test: LUC positive (Nicotiana tabacum [2]; 94 mM KCl): 144
effect on plant phenotype / plant biomass (Arabidopsis; 100 mM KCl in MS medium): no decrease in plant biomass was observed

[Cl-].[Cl-].[Mg+2] [MgCl2]
effect on homologous recombination frequency (Arabidopsis thaliana; MS medium + 12.5 mM MgCl2, 21 days post-germination): significantly positive effects

[Cl-].[Na+] [NaCl]
RR (recombination rate) (Arabidopsis thaliana; 25 mM NaCl in medium): 12.29 ± 0.18 10^−8
Fold Increase of RR (Arabidopsis thaliana; 25 mM NaCl vs plants grown in absence of NaCl): 1.64
RR (recombination rate) (Arabidopsis thaliana; 75 mM NaCl in medium): 22.52 ± 0.34 10^−8
Fold Increase of RR (Arabidopsis thaliana; 75 mM NaCl vs plants grown in absence of NaCl): 3
RR (recombination rate) (Arabidopsis thaliana; 100 mM NaCl in medium): 29.57 ± 0.82 10^−8
Fold Increase of RR (Arabidopsis thaliana; 100 mM NaCl vs plants grown in absence of NaCl): 3.93
effect on homologous recombination frequency (Arabidopsis thaliana; MS medium + 25 mM NaCl, 21 days post-germination): significantly positive effects
increase in recombination frequency (Arabidopsis thaliana; exposure to 25-100 mM NaCl): 2-4 fold
decrease in plant biomass (Arabidopsis; 75 mM NaCl in MS medium): ~20%
decrease in plant biomass (Arabidopsis; 100 mM NaCl in MS medium): ~50%
